# Laboratory results as given in patent US9902702B2, “Spirocycloheptanes as inhibitors of rock” (BRISTOL-MYERS SQUIBB COMPANY, priority 2014, dated 2018).
# Structures can show the parent of a compound that is named as a salt.
# Target: ROCK2 (Homo sapiens, UniProt O75116)
# Assay: ROCK assay: phosphorylation of FITC peptide substrate, LABCHIP 3000 mobility shift
# Type: biochemical
# Conditions: 5 μM ATP, 1.5 μM peptide substrate; read-out: ROCK2 Activity (ROCK IC50 range)
# Method in brief: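 Rho kinase variant phosphorylates 1.5 μM FITC-AHA-AKRRRLSSLRA-OH with 5 μM ATP in 20 mM HEPES pH 7.5, 20 mM MgCl2, 0.015% Brij-35, 4 mM DTT, DMSO <2%. EDTA stops the reaction, and phospho and non-phospho peptides are resolved by LabChip 3000 mobility shift. IC50 from dose-response curve fit.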
# Sequence of ROCK2 (O75116 whole entry, species assumed): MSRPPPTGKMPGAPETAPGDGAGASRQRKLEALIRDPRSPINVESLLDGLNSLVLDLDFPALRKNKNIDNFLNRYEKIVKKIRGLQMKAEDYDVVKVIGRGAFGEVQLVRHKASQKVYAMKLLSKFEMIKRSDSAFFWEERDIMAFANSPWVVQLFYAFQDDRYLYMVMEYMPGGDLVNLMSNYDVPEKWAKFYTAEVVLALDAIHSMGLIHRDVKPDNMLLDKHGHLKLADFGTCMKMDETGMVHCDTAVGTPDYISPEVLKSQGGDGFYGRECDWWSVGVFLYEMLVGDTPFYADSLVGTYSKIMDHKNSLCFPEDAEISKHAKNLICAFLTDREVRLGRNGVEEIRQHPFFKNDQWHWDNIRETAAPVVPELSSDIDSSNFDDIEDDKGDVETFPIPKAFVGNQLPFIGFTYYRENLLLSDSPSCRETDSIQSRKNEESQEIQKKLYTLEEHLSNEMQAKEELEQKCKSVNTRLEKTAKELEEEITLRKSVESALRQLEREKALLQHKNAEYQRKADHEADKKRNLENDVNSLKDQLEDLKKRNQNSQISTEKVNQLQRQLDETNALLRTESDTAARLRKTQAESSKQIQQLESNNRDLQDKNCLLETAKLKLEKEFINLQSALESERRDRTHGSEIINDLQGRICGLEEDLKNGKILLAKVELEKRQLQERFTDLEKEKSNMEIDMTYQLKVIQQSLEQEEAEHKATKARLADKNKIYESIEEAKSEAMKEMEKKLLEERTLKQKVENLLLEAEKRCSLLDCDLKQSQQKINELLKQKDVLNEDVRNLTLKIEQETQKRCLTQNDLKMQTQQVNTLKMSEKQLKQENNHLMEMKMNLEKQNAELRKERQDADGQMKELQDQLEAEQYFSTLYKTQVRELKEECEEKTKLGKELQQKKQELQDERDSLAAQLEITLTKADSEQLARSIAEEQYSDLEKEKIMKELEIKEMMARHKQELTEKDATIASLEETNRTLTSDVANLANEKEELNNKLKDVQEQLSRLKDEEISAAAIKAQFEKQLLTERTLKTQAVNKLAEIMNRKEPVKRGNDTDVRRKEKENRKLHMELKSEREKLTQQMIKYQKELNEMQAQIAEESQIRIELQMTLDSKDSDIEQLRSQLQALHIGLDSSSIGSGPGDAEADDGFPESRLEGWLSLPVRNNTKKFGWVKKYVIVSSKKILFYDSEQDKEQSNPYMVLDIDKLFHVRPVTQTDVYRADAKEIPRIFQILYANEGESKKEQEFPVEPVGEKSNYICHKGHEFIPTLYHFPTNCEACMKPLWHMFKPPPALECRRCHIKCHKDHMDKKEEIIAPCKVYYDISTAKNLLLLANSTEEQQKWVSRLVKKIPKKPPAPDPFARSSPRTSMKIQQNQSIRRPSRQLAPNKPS
row,SMILES,IC50
1,"O=C(NC1CC2(C1)CC(c1n[nH]c(=O)c3ccccc13)C2)c1cnc(N2CCCC2)s1 [Example 70, N-((aR)-6-(4-oxo-3,4-dihydrophthalazin-1-yl)spiro[3.3]heptan-2-yl)-2-(pyrrolidin-1-yl)thiazole-5-carboxamide]",2.01 to 5 nM
2,"CC(C)(O)Cn1cc(C(=O)NC2CC3(C2)CC(c2n[nH]c(=O)c4ccccc24)C3)c2ccccc21 [Example 72, 1-(2-hydroxy-2-methylpropyl)-N-((aR)-6-(4-oxo-3,4-dihydrophthalazin-1-yl)spiro[3.3]heptan-2-yl)-1H-indole-3-carboxamide]",0.2 to 2 nM
3,"CC(C)(O)Cn1nc(C(=O)NC2CC3(C2)CC(c2n[nH]c(=O)c4ccccc24)C3)c2ccccc21 (single isomer, unassigned) [Example 21]",2.01 to 5 nM
4,"CC(C)(O)COc1ccc2c(C(=O)NC3CC4(C3)CC(c3n[nH]c(=O)c5ccccc35)C4)cnn2c1C1CC1 [Example 97, 7-cyclopropyl-6-(2-hydroxy-2-methylpropoxy)-N-((aR)-6-(4-oxo-3,4-dihydrophthalazin-1-yl)spiro[3.3]heptan-2-yl)pyrazolo[1,5-a]pyridine-3-carboxamide]",0.2 to 2 nM
5,"O=C(NC1CC2(C1)CC(c1n[nH]c(=O)c3ccccc13)C2)c1cnn2cc(OCc3ccccc3)ccc12 [Example 99, 6-(benzyloxy)-N-((aR)-6-(4-oxo-3,4-dihydrophthalazin-1-yl)spiro[3.3]heptan-2-yl)pyrazolo[1,5-a]pyridine-3-carboxamide]",0.2 to 2 nM
6,"O=c1[nH]nc([C@H]2CC3(C[C@H](Nc4nncc5ccccc45)C3)C2)c2ccccc12 (stereo partly drawn) [Example 45, 4-((aR)-6-(Phthalazin-1-ylamino)spiro[3.3]heptan-2-yl)phthalazin-1(2H)-one(2H)-one]",5.1 to 15 nM
7,"O=C(N[C@H]1CC2(C1)C[C@H](c1n[nH]c(=O)c3ccccc31)C2)c1ccn(CC(F)(F)F)n1 (single isomer, unassigned) [Example 18]",100 to 2100 nM
8,"O=C(NC1CC2(C1)CC(c1n[nH]c(=O)c3ccccc13)C2)c1cnn2cc(N3CCC(F)(F)C3)ccc12 [Example 90, 6-(3,3-difluoropyrrolidin-1-yl)-N-((aR)-6-(4-oxo-3,4-dihydrophthalazin-1-yl)spiro[3.3]heptan-2-yl)pyrazolo[1,5-a]pyridine-3-carboxamide]",0.2 to 2 nM
9,"Cc1nn(-c2ccccc2)cc1C(=O)NC1CC2(C1)CC(c1n[nH]c(=O)c3ccccc13)C2 (stereo not drawn) [Example 8, 3-methyl-N-[6-(4-oxo-3,4-dihydrophthalazin-1-yl)spiro[3.3]heptan-2-yl]-1-phenyl-1H-pyrazole-4-carboxamide]",15.1 to 100 nM
10,"Cc1c(OCc2ccccc2)ccc2c(C(=O)NC3CC4(C3)CC(c3n[nH]c(=O)c5ccccc35)C4)cnn12 (stereo not drawn) [Example 126, 6-(benzyloxy)-7-methyl-N-((αR)-6-(4-oxo-3,4-dihydrophthalazin-1-yl)spiro[3.3]heptan-2-yl)pyrazolo[1,5-α]pyridine-3-carboxamide]",0.2 to 2 nM
11,"Cn1nc(C(=O)NC2CC3(C2)CC(c2n[nH]c(=O)c4ccccc24)C3)cc1C1CC1 [Example 26, 5-cyclopropyl-1-methyl-N-[(aR)-6-(4-oxo-3,4-dihydrophthalazin-1-yl)spiro[3.3]heptan-2-yl]-1H-pyrazole-3-carboxamide]",2.01 to 5 nM
12,"COc1ccc(Cn2cc(C(=O)NC3CC4(C3)CC(c3n[nH]c(=O)c5ccccc35)C4)cn2)cc1 [Example 102, 1-(4-methoxybenzyl)-N-((aR)-6-(4-oxo-3,4-dihydrophthalazin-1-yl)spiro[3.3]heptan-2-yl)-1H-pyrazole-4-carboxamide]",5.1 to 15 nM
13,"COc1ccc2c(C(=O)NC3CC4(C3)CC(c3n[nH]c(=O)c5ccccc35)C4)nn(CC(C)(C)O)c2c1 [Example 62, 1-(2-hydroxy-2-methylpropyl)-6-methoxy-N-((aR)-6-(4-oxo-3,4-dihydrophthalazin-1-yl)spiro[3.3]heptan-2-yl)-1H-indazole-3-carboxamide]",0.2 to 2 nM
14,"COc1cccc(-n2cc(C(=O)NC3CC4(C3)CC(c3n[nH]c(=O)c5ccccc35)C4)nn2)c1 [Example 116, 1-(3-methoxyphenyl)-N-((aR)-6-(4-oxo-3,4-dihydrophthalazin-1-yl)spiro[3.3]heptan-2-yl)-1H-1,2,3-triazole-4-carboxamide]",2.01 to 5 nM
15,"O=C(Cc1cccc2ccccc12)NC1CC2(C1)CC(c1n[nH]c(=O)c3ccccc13)C2 (stereo not drawn) [Example 3, 2-(naphthalen-1-yl)-N-[6-(4-oxo-3,4-dihydrophthalazin-1-yl)spiro[3.3]heptan-2-yl]acetamide]",100 to 2100 nM

# More lines, now with the values ahead:
row,IC50,SMILES
1,15.1 to 100 nM,"[H][C@]1(c2n[nH]c(=O)c3ccccc32)C[C@]2(C[C@@H](NC(=O)c3cnc4ccc(F)c(C)n34)C2)C1 (stereo partly drawn) [Example 407, 6-fluoro-5-methyl-N-((aR)-6-(4-oxo-3,4-dihydrophthalazin-1-yl)spiro[3.3]heptan-2-yl)imidazo[1,2-a]pyridine-3-carboxamide]"
2,2.01 to 5 nM,"Cn1nccc1-c1ccc2c(C(=O)NC3CC4(C3)CC(c3n[nH]c(=O)c5ccccc35)C4)nn(CC(C)(C)O)c2c1 (stereo not drawn) [Example 146, 1-(2-hydroxy-2-methylpropyl)-6-(1-methyl-1H-pyrazol-5-yl)-N-((αR)-6-(4-oxo-3,4-dihydrophthalazin-1-yl)spiro[3.3]heptan-2-yl)-1H-indazole-3-carboxamide]"
3,100 to 2100 nM,"[H][C@]1(c2n[nH]c(=O)c3ccccc32)C[C@]2(C[C@@H](NC(=O)c3cn(CC(C)(C)O)c4cc(=O)ccn34)C2)C1 (stereo partly drawn) [Example 402, 1-(2-hydroxy-2-methylpropyl)-7-oxo-N-((aR)-6-(4-oxo-3,4-dihydrophthalazin-1-yl)spiro[3.3]heptan-2-yl)-1,7-dihydroimidazo[1,2-a]pyridine-3-carboxamide]"
4,5.1 to 15 nM,"CN(C)S(=O)(=O)c1ccc2c(c1)CCN2C(=O)NC1CC2(C1)CC(c1n[nH]c(=O)c3ccccc13)C2 [Example 260, 5-(N,N-dimethylsulfamoyl)-N-((aR)-6-(4-oxo-3,4-dihydrophthalazin-1-yl)spiro[3.3]heptan-2-yl)indoline-1-carboxamide]"
5,0.2 to 2 nM,"[H][C@]1(c2n[nH]c(=O)c3ccccc32)C[C@]2(C[C@@H](NC(=O)c3ccc(-c4cn[nH]c4)c(C)c3)C2)C1 (stereo partly drawn) [Example 418, 3-methyl-N-((aR)-6-(4-oxo-3,4-dihydrophthalazin-1-yl)spiro[3,3]heptan-2-yl)-4-(1H-pyrazol-4-yl)benzamide]"
6,2.01 to 5 nM,"CN1CCN(Cc2ccc3c(C(=O)NC4CC5(C4)CC(c4n[nH]c(=O)c6ccccc46)C5)cnn3c2)CC1 [Example 201, 6-((4-methylpiperazin-1-yl)methyl)-N-((aR)-6-(4-oxo-3,4-dihydrophthalazin-1-yl)spiro[3.3]heptan-2-yl)pyrazolo[1,5-a]pyridine-3-carboxamide]"
7,2.01 to 5 nM,"[H][C@]1(c2n[nH]c(=O)c3ccccc32)C[C@]2(C[C@@H](NC(=O)c3cnc4cc(OC(C)C)ccn34)C2)C1 (stereo partly drawn) [Example 437, 7-isopropoxy-N-((aR)-6-(4-oxo-3,4-dihydrophthalazin-1-yl)spiro[3.3]heptan-2-yl)imidazo[1,2-a]pyridine-3-carboxamide]"
8,2.01 to 5 nM,"CC(C)(O)COc1ccc2c(C(=O)NC3CC4(C3)CC(c3n[nH]c(=O)n5cccc35)C4)cnn2c1 (stereo not drawn) [Example 279, 6-(2-hydroxy-2-methylpropoxy)-N-(6-(4-oxo-3,4-dihydropyrrolo[1,2-d][1,2,4]triazin-1-yl)spiro[3.3]heptan-2-yl)pyrazolo[1,5-a]pyridine-3-carboxamide, TFA]"
9,15.1 to 100 nM,"Cc1nnn(C)c1-c1ccc2c(C(=O)NC3CC4(C3)CC(c3n[nH]c(=O)c5ccccc35)C4)cnn2c1 (stereo not drawn) [Example 175, 6-(1,4-dimethyl-1H-1,2,3-triazol-5-yl)-N-((αR)-6-(4-oxo-3,4-dihydrophthalazin-1-yl)spiro[3.3]heptan-2-yl)pyrazolo[1,5-α]pyridine-3-carboxamide]"
10,15.1 to 100 nM,"CC(C)(Oc1ccc2c(C(=O)N[C@H]3CC4(C3)C[C@H](c3n[nH]c(=O)c5ccccc53)C4)cnn2c1)C(=O)O (stereo partly drawn) [Example 469, 2-methyl-2-((3-(((aR)-6-(4-oxo-3,4-dihydrophthalazin-1-yl)spiro[3.3]heptan-2-yl)carbamoyl)pyrazolo[1,5-a]pyridin-6-yl)oxy)propanoic acid]"
11,0.2 to 2 nM,[H][C@]1(c2n[nH]c(=O)c3ccccc32)C[C@]2(C[C@@H](NC(=O)c3cnc4cc(N5CCN(C)CC5)ccn34)C2)C1 (stereo partly drawn) [Example 378]
12,15.1 to 100 nM,"[H][C@]1(c2n[nH]c(=O)c3ccccc32)C[C@]2(C[C@@H](NC(=O)c3cn4cccc(C)c4n3)C2)C1 (stereo partly drawn) [Example 362, 8-methyl-N-((aR)-6-(4-oxo-3,4-dihydrophthalazin-1-yl)spiro[3.3]heptan-2-yl)imidazo[1,2-a]pyridine-2-carboxamide]"
13,15.1 to 100 nM,"[H][C@]1(c2n[nH]c(=O)c3ccccc32)C[C@@]2(C[C@H](NC(=O)c3ncn4ccccc34)C2)C1 (stereo partly drawn) [Example 292, N-((aR)-6-(4-oxo-3,4-dihydrophthalazin-1-yl)spiro[3.3]heptan-2-yl)imidazo[1,5-a]pyridine-1-carboxamide]"
14,15.1 to 100 nM,"O=C(NC1CC2(C1)CC(c1n[nH]c(=O)c3ccccc13)C2)c1cnn2ccncc12 [Example 467, N-((aR)-6-(4-oxo-3,4-dihydrophthalazin-1-yl)spiro[3.3]heptan-2-yl)pyrazolo[1,5-a] pyrazine-3-carboxamide]"
15,0.2 to 2 nM,"[H][C@]1(c2n[nH]c(=O)c3ccccc32)C[C@]2(C[C@@H](NC(=O)c3cnn4cc(OCC(C)(C)OC(=O)[C@H](C)N)ccc34)C2)C1 (stereo partly drawn) [Example 270, (S)-2-methyl-1-((3-(((aR)-6-(4-oxo-3,4-dihydrophthalazin-1-yl)spiro[3.3]heptan-2-yl)carbamoyl)pyrazolo[1,5-a]pyridin-6-yl)oxy)propan-2-yl2-aminopropanoate, TFA]"
